Laboratory results reported in patent US9302999B2, “Substituted triazoles as herbicides” (E. I. DU PONT DE NEMOURS AND COMPANY, priority 2012, dated 2016).

Assays:
Assay type in all cases: in vivo
[1] = test system: barnyardgrass (Echinochloa crus-galli); assay: Test C flooded paddy test: barnyardgrass; settings: scale 0 to 100 (0 no effect, 100 complete control)
Outline: (§1)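 2-leaf stage plants; pots flooded 3 cm above soil; compound applied into paddy water, depth maintained. Greenhouse 13–15 d. Visual rating vs controls, 0–100 (0 = no effect, 100 = complete control); dash = no result.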

[2] = test system: sedge, umbrella (small-flower umbrella sedge, Cyperus difformis); assay: Test C flooded paddy test: sedge, umbrella; settings: scale 0 to 100 (0 no effect, 100 complete control)
Outline: as §1

[3] = test system: barnyardgrass (Echinochloa crus-galli); assay: Test A pre-/postemergence: barnyardgrass; settings: for Barnyardgrass plant response rating: Postemergence; for Plant response rating, Barnyardgrass: Preemergence
Outline: (§2)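 Seeds were sown in loam/sand blend and sprayed preemergence (directed soil spray) and, simultaneously, postemergence at 2–10 cm, one- to two-leaf stage, using compounds in non-phytotoxic solvent with surfactant. After ~10 days in greenhouse, injury was rated visually versus untreated controls, 0 (no effect) to 100 (complete control).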

[4] = test system: ducksalad (Heteranthera limosa); assay: Test C flooded paddy test: ducksalad; settings: scale 0 to 100 (0 no effect, 100 complete control)
Outline: as §1

[5] = test system: morningglory (Ipomoea spp.); assay: Test A pre-/postemergence: morningglory; settings: for Morningglory plant response rating: Postemergence; for Plant response rating, Morningglory: Preemergence
Outline: as §2

[6] = test system: crabgrass, large (large crabgrass, Digitaria sanguinalis); assay: Test A pre-/postemergence: crabgrass, large; settings: for Crabgrass, Large plant response rating: Postemergence; for Plant response rating, Crabgrass, Large: Preemergence
Outline: as §2

[7] = test system: wheat (Triticum aestivum); assay: Test A pre-/postemergence: wheat; settings: for Wheat plant response rating: Postemergence; for Plant response rating, Wheat: Preemergence
Outline: as §2

rice (Oryza sativa) = assay: Test C flooded paddy test: rice; settings: scale 0 to 100 (0 no effect, 100 complete control)
Outline: as §1

[8] = test system: pigweed (Amaranthus retroflexus); assay: Test A pre-/postemergence: pigweed; settings: for Pigweed plant response rating: Postemergence; for Plant response rating, Pigweed: Preemergence
Outline: as §2

[9] = test system: foxtail, giant (giant foxtail, Setaria faberii); assay: Test A pre-/postemergence: foxtail, giant; settings: for Foxtail, Giant plant response rating: Postemergence; for Plant response rating, Foxtail, Giant: Preemergence
Outline: as §2

corn (Zea mays) = assay: Test A pre-/postemergence: corn; settings: for Corn plant response rating: Postemergence; for Plant response rating, Corn: Preemergence
Outline: as §2

[10] = test system: velvetleaf (Abutilon theophrasti); assay: Test A pre-/postemergence: velvetleaf; settings: for Velvetleaf plant response rating: Postemergence; for Plant response rating, Velvetleaf: Preemergence
Outline: as §2

[11] = Flood (flooded paddy test), 62 g ai/ha, visual rating after 13 to 15 days
[12] = Flood (flooded paddy test), 125 g ai/ha, visual rating after 13 to 15 days
[13] = Flood (flooded paddy test), 250 g ai/ha, visual rating after 13 to 15 days
[14] = 125 g ai/ha, 0 to 100 scale, 0 is no effect, 100 is complete control
[15] = 500 g ai/ha, visual rating on 0 to 100 scale (0 no effect, 100 complete control), approximately ten days
[16] = 125 g ai/ha, 0 to 100 scale (0 no effect, 100 complete control)
[17] = 500 g ai/ha, 0 to 100 scale, 0 is no effect, 100 is complete control

SMILES: Cc1nn(-c2ccnc(C(F)(F)F)c2)nc1C(=O)c1cccc(C(F)(F)F)c1 [Compound 49]
- Plant response rating, Barnyardgrass [1, 11]: 0
- Plant response rating, Barnyardgrass [1, 12]: 10
- Plant response rating, Barnyardgrass [1, 13]: 15
- Plant response rating, Barnyardgrass ([1]; Flood, 31 g ai/ha): 0
- Plant response rating, Sedge, Umbrella [2, 11]: 0
- Plant response rating, Sedge, Umbrella [2, 12]: 70
- Plant response rating, Sedge, Umbrella [2, 13]: 75
- Plant response rating, Sedge, Umbrella ([2]; Flood, 31 g ai/ha): 0
- Barnyardgrass plant response rating [3, 14]: 10
- Barnyardgrass plant response rating [3, 15]: 20
- Plant response rating, Barnyardgrass [3, 16]: 10
- Plant response rating, Barnyardgrass [3, 17]: 30
- Plant response rating, Ducksalad [4, 11]: 0
- Plant response rating, Ducksalad [4, 12]: 30
- Plant response rating, Ducksalad [4, 13]: 40
- Plant response rating, Ducksalad ([4]; Flood, 31 g ai/ha): 0
- Morningglory plant response rating [5, 14]: 20
- Morningglory plant response rating [5, 15]: 50
- Plant response rating, Morningglory [5, 16]: 0
- Plant response rating, Morningglory [5, 17]: 10
- Crabgrass, Large plant response rating [6, 14]: 60
- Crabgrass, Large plant response rating [6, 15]: 90
- Plant response rating, Crabgrass, Large [6, 16]: 80
- Plant response rating, Crabgrass, Large [6, 17]: 100
- Wheat plant response rating [7, 14]: 10
- Wheat plant response rating [7, 15]: 20
- Plant response rating, Wheat [7, 16]: 10
- Plant response rating, Wheat [7, 17]: 20
- Plant response rating, Rice (rice (Oryza sativa); [11]): 0
- Plant response rating, Rice (rice (Oryza sativa); [12]): 0
- Plant response rating, Rice (rice (Oryza sativa); [13]): 0
- Plant response rating, Rice (rice (Oryza sativa); Flood, 31 g ai/ha): 0
- Pigweed plant response rating [8, 14]: 80
- Pigweed plant response rating [8, 15]: 100
- Plant response rating, Pigweed [8, 16]: 60
- Plant response rating, Pigweed [8, 17]: 100
- Foxtail, Giant plant response rating [9, 14]: 30
- Foxtail, Giant plant response rating [9, 15]: 60
- Plant response rating, Foxtail, Giant [9, 16]: 80
- Plant response rating, Foxtail, Giant [9, 17]: 100
- Corn plant response rating (corn (Zea mays); [14]): 10
- Corn plant response rating (corn (Zea mays); [15]): 20
- Plant response rating, Corn (corn (Zea mays); [16]): 0
- Plant response rating, Corn (corn (Zea mays); [17]): 10
- Velvetleaf plant response rating [10, 14]: 30
- Velvetleaf plant response rating [10, 15]: 60
- Plant response rating, Velvetleaf [10, 16]: 0
- Plant response rating, Velvetleaf [10, 17]: 10

SMILES: Cc1nn(-c2nc(Cl)ns2)nc1C(=O)c1cccc(C(F)(F)F)c1 [Compound 59]
- Plant response rating, Barnyardgrass [1, 11]: 0
- Plant response rating, Barnyardgrass [1, 12]: 0
- Plant response rating, Barnyardgrass [1, 13]: 0
- Plant response rating, Barnyardgrass ([1]; Flood, 31 g ai/ha): 0
- Plant response rating, Sedge, Umbrella [2, 11]: 0
- Plant response rating, Sedge, Umbrella [2, 12]: 0
- Plant response rating, Sedge, Umbrella [2, 13]: 0
- Plant response rating, Sedge, Umbrella ([2]; Flood, 31 g ai/ha): 0
- Barnyardgrass plant response rating [3, 14]: 0
- Barnyardgrass plant response rating [3, 15]: 0
- Plant response rating, Barnyardgrass [3, 16]: 0
- Plant response rating, Barnyardgrass [3, 17]: 0
- Plant response rating, Ducksalad [4, 11]: 0
- Plant response rating, Ducksalad [4, 12]: 0
- Plant response rating, Ducksalad [4, 13]: 0
- Plant response rating, Ducksalad ([4]; Flood, 31 g ai/ha): 0
- Morningglory plant response rating [5, 14]: 0
- Morningglory plant response rating [5, 15]: 0
- Plant response rating, Morningglory [5, 16]: 0
- Plant response rating, Morningglory [5, 17]: 0
- Crabgrass, Large plant response rating [6, 14]: 0
- Crabgrass, Large plant response rating [6, 15]: 0
- Plant response rating, Crabgrass, Large [6, 16]: 0
- Plant response rating, Crabgrass, Large [6, 17]: 0
- Wheat plant response rating [7, 14]: 0
- Wheat plant response rating [7, 15]: 0
- Plant response rating, Wheat [7, 16]: 0
- Plant response rating, Wheat [7, 17]: 0
- Plant response rating, Rice (rice (Oryza sativa); [11]): 0
- Plant response rating, Rice (rice (Oryza sativa); [12]): 0
- Plant response rating, Rice (rice (Oryza sativa); [13]): 0
- Plant response rating, Rice (rice (Oryza sativa); Flood, 31 g ai/ha): 0
- Pigweed plant response rating [8, 14]: 0
- Pigweed plant response rating [8, 15]: 0
- Plant response rating, Pigweed [8, 16]: 0
- Plant response rating, Pigweed [8, 17]: 0
- Foxtail, Giant plant response rating [9, 14]: 0
- Foxtail, Giant plant response rating [9, 15]: 0
- Plant response rating, Foxtail, Giant [9, 16]: 0
- Plant response rating, Foxtail, Giant [9, 17]: 0
- Corn plant response rating (corn (Zea mays); [14]): 0
- Corn plant response rating (corn (Zea mays); [15]): 0
- Plant response rating, Corn (corn (Zea mays); [16]): 0
- Plant response rating, Corn (corn (Zea mays); [17]): 0
- Velvetleaf plant response rating [10, 14]: 0
- Velvetleaf plant response rating [10, 15]: 0
- Plant response rating, Velvetleaf [10, 16]: 0
- Plant response rating, Velvetleaf [10, 17]: 0
